The source made the active and inactive calls. The rule behind the calls is not given here.

Experimental findings from ChEMBL document CHEMBL6071166, “Maduraflavacins A-E, Unusual Phenyl Polyene Metabolites Produced by a Rare Marine-Derived Actinomadura sp” (2024) are described below.

For assay [1], the system named is Staphylococcus aureus. The assay can be described thus: Antibacterial activity against Staphylococcus aureus Sau 16339 at 0.005 to 1 mg/ml by agar diffusion assay. The class given is functional, organism-based. To be noted: dose 0.005-1 mg/ml. A general note: A growth-free zone around the sample is the usual read-out of agar diffusion tests.
Assay [2] deals with Micrococcus luteus. In words: Antibacterial activity against Micrococcus luteus at 0.005 to 1 mg/ml by agar diffusion assay. The assay is classed as functional, organism-based. Conditions: dose 0.005-1 mg/ml.
For assay [3], the system named is Staphylococcus aureus. The assay can be described thus: Antibacterial activity against Staphylococcus aureus Sau 16339 assessed as inhibition zone at 0.5 mg/ml by agar diffusion assay. Conditions: read-out: IZ. The class given is functional.
The subject of assay [4] is Micrococcus luteus. In words: Antibacterial activity against Micrococcus luteus assessed as inhibition zone at 0.5 mg/ml by agar diffusion assay. The assay is classed as functional. Conditions: read-out: IZ.

Take `CC(/C=C/C(=O)N[C@@H]1O[C@H](CO)[C@@H](O)[C@H](O[C@@H]2O[C@H](CO)[C@@H](O)[C@H](O[C@@H]3O[C@H](CO[C@@H]4O[C@H](CO)[C@@H](O)[C@H](O)[C@H]4O)[C@@H](O)[C@H](O)[C@H]3O)[C@H]2O)[C@H]1O)=C\C=C\c1ccccc1`: the outcome with Staphylococcus aureus [1] and in the assay on Micrococcus luteus [2] was inactive.

As to `COC(=O)/C=C/C=C/C=C/C(C)=C/C=C/c1ccccc1`, the outcome in the assay on Staphylococcus aureus [1] and in the assay on Micrococcus luteus [2] was inactive.

For the compound `CN(C)[C@@H]1C(O)=C(C(N)=O)C(=O)[C@@]2(O)C(O)=C3C(=O)c4c(O)cccc4[C@@](C)(O)[C@H]3C[C@@H]12` [TETRACYCLINE], the zone of inhibition at 500 µg/mL is 12 mm with Staphylococcus aureus [3] and 15 mm in the assay on Micrococcus luteus [4].

In the case of `CC(/C=C/C=C/C=C/C(=O)N[C@@H]1O[C@H](CO)[C@@H](O)[C@H](O[C@@H]2O[C@H](CO)[C@@H](O)[C@H](O[C@@H]3O[C@H](CO[C@@H]4O[C@H](CO)[C@@H](O)[C@H](O)[C@H]4O)[C@@H](O)[C@H](O)[C@H]3O)[C@H]2O)[C@H]1O)=C\C=C\c1ccccc1`, the outcome in the assay on Staphylococcus aureus [1] was inactive. Further, the zone of inhibition at 500 µg/mL in the assay on Micrococcus luteus [4] came to 3 mm.

For `COC(=O)/C=C/C(C)=C/C=C/C(C)=C/C=C/c1ccccc1`, the outcome with Staphylococcus aureus [1] and in the assay with Micrococcus luteus [2] was inactive.

Turning to `CC(/C=C/C=C(C)/C=C/C(=O)N[C@@H]1O[C@H](CO)[C@@H](O)[C@H](O[C@@H]2O[C@H](CO)[C@@H](O)[C@H](O[C@@H]3O[C@H](CO[C@@H]4O[C@H](CO)[C@@H](O)[C@H](O)[C@H]4O)[C@@H](O)[C@H](O)[C@H]3O)[C@H]2O)[C@H]1O)=C\C=C\c1ccccc1`, the zone of inhibition at 500 µg/mL in the assay with Staphylococcus aureus [3] worked out at 4 mm. The outcome in the assay with Micrococcus luteus [2] was inactive.
